Results from patent US7388017B2, “Inhibitors of serine proteases, particularly hepatitis C virus NS3 protease” (Vertex Pharmaceuticals Incorporated, priority 1996, dated 2008).
Starred links: 1 amine or outer side, 2 acyl side, 3 side chain; linkers in the order of their positions; H or OH if unused. Non-standard residues stand in square brackets, D forms with d. Residues, ends and D or L forms follow the SMILES beside them. Groups on a side chain read outwards from the residue. ξ: configuration not given here. *: point of attachment. ξ(3-Amino-2-oxopentanoyl) = CCC(N[*:1])C(=O)C(=O)[*:2]; X23 = CCC(N*)C(=O)c1ncc(-c2c(Cl)cccc2Cl)o1; Bip = N[CH](Cc1ccc(-c2ccccc2)cc1)C(=O)O; X19 = O=[N+]([O-])c1cc(N*)ccc1N1CCCCC1; CH2(1-naphthyl) = c1ccc2c(C*)cccc2c1; X45 = O=C([C@@H]1C2CC2CN1[*:1])[*:2]; Pyrazinecarbonyl = O=C(c1cnccn1)*; X30 = O=[N+]([O-])c1cccc(N*)c1; X35 = Cc1noc(C)c1-c1nc(C*)no1; Hyp = O=C(O)[CH]1C[CH](O)CN1; X5 = c1ccc(Oc2cccc(C*)c2)cc1; X27 = Fc1cc2c(c(C*)c1)OCOC2; X44 = O=C(c1ccc2cnccc2n1)*; X39 = CC(=O)c1ccc(N*)cc1; X43 = Clc1cc(N*)cc(Cl)n1; X6 = Nc1c(Cl)cc(N*)cc1Cl; Abu = CC[CH](N)C(=O)O; X34 = N#Cc1cccc(N*)c1; CO = O=C([*:1])[*:2]; NHBn = c1ccc(CN*)cc1; Glycolyl = O=C(CO)*; ξAbu = CCC(N)C(=O)O; X16 = C1COC(CN*)C1; Bn = c1ccc(C*)cc1; NHPr = CCCN*

Molecular target: T1, HCV NS3 protease (Hepatitis C virus genotype 1a, UniProt P27958)
T1 construct: more particularly HCV NS3 proteases
T1 sequence (P27958 1027-1208): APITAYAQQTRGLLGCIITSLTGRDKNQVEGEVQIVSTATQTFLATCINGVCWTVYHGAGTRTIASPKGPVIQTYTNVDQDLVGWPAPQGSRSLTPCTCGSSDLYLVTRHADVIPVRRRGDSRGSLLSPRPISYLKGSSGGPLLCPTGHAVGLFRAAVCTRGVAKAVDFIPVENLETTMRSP
Test: Enzyme inhibition of HCV NS3 serine protease (cleavage of peptide substrate / EDVV AbuC-p-nitroanilide, with or without NS4A)
Format: biochemical
Settings: not given
Experimental: Cleavage reactions were quenched by the addition of an equal volume of a mixture of 10% TFA:acetonitrile (1:1) and activity was assessed on a reversed phase HPLC column (Rainin C18 Microsorb-MV, […], 4.6×250 mm; 0-50% acetonitrile, 0.1% TFA@ 3.33% min) using a Hewlett Packard 1050 instrument with auto-injection and diode array detection at 210 nm and 280 nm (where appropriate). Peptide elution fragments were collected and identified by mass spectrometry and N-terminal sequence analysis. Fragment identity and concentration was further verified by authentic, synthesized products. Initial rates of cleavage were determined at <20% substrate conversion and catalytic parameters were determined assuming Michaelis-Menten kinetics using the MultiFit program (Day Computing, Cambridge, Mass.).
Spectrophotometric assays were run in a 96-well microtiter plate at 30 C, using a SpectraMax 250 reader (Molecular Devices, Sunnyvale, Calif.) with kinetic capability. Cleavage of EDVV AbuC-p-nitroanilide (5A-pNA) substrate was performed with or without […] in the same buffer used for HPLC assays at 30 C, and pNA release was monitored at 405 nm. The extinction-coefficient of p-nitroaniline is independent of pH at values of 5.5. and above [Tuppy, H., et al., Hoppe-Seyler's Z. Physiol. Chem., 329, pp. 278-288 (1962)]; Raybuck and Luong, unpublished observations).
Kinetic constants for the rapid equilibrium ordered bisubstrate reaction were determined from rate vs [4A], [EDVV AbuC-pNA] data by non-linear least squares fitting to equation 1 [Morrison, J. F. Biochim. Biophys. Acta, 185, pp. 269-286 (1969)] as described in the text. Kii and Kis values for peptidyl inhibitors were determined from rate vs [inhibitor], [substrate] data and fitting to the equation for mixed inhibition: rate=Vmax[S]/{Km(1+[I]/Kis)+[S](1+[I]/Kii)} The commercial program KinetAsyst (StateCollege, Pa.) was used for both procedures. Ki values were calculated from rate vs [inhibitor] plots by a nonlinear least squares fit of the data to the equation of Morrison for tight binding competitive inhibition [Morrison, J. F. Biochim. Biophys. Acta, 185, pp. 269-286 (1969)]. The KineTic program (BioKin Ltd) was used for this procedure.
Ki values are expressed in μM. Category “A” indicates <1 μM inhibition; category “B” indicates 1-100 μM inhibition; category “C” indicates >100 μM.

SMILES | Ki [µM]
CCC(NC(=O)C(CC(C)C)NC(=O)C(NC(=O)C(NC(=O)c1cnccn1)C(C)C)C(C)C)C(=O)C(=O)N[C@@H](CC)c1ccccc1 (stereo partly shown) [Compound 121] | > 100
CCC(NC(=O)C1CC(OCc2ccc(Cl)c(Cl)c2)CN1C(=O)C(NC(=O)C(NC(=O)c1cnccn1)C(C)C)C(C)C)P(=O)(Oc1ccccc1)Oc1ccccc1 (stereo not shown) [Compound 71] | < 1

Same assay, conditions: Enzyme inhibition data; Ki from rate vs [inhibitor] plots, Morrison tight binding competitive inhibition fit; 30 C, pH 7.8; read-out: Ki

SMILES | Ki [µM]
CCC(C=O)NC(=O)C1CC(OCc2ccccc2)CN1C(=O)C(NC(=O)COc1ccccc1C=O)C(C)C (stereo not shown) [Compound 169] | > 100
CCC(C=O)NC(=O)C1CC(OCc2ccccc2)CN1C(=O)C(NS(=O)(=O)Cc1ccccc1)C(C)C (stereo not shown) [Compound 143] | > 100
CCC(C=O)NC(=O)C1CC(OCc2cccc3ccccc23)CN1C(=O)C(NC(=O)C(NC(=O)c1cnccn1)C(C)C)C(C)C (stereo not shown) [Compound 26] (Pyrazinecarbonyl-VV[Hyp](CH2(1-naphthyl))[Abu]-aldehyde; configuration not given here) | 1 to 100
CCC(NC(=O)C(CC(C)C)NC(=O)C(NC(=O)C(NC(=O)c1cnccn1)C(C)C)C(C)C)C(=O)C(=O)N[C@H](C)c1ccccc1 (stereo partly shown) [Compound 116] | 1 to 100
CCC(C=O)NC(=O)C1CC(OCc2cccc(Oc3ccccc3)c2)CN1C(=O)C(NC(=O)C(NC(=O)c1cnccn1)C(C)C)C(C)C (stereo not shown) [Compound 1] (Pyrazinecarbonyl-VV[Hyp](X5)[Abu]-aldehyde; configuration not given here) | 1 to 100
CCC(NC(=O)C(CC(C)C)NC(=O)C(NC(=O)C(NC(=O)C(CC(=O)O)NC(=O)C(N)CCC(=O)O)C(C)C)C(C)C)C(=O)c1ncc(-c2c(Cl)cccc2Cl)o1 (stereo not shown) [Compound 126] (H-EDVVL-X23; configuration not given here) | > 100
CCC(NC(=O)C1CC(OCc2ccccc2)CN1C(=O)C(NC(=O)C(NC(=O)c1cnccn1)C(C)C)C(C)C)C(=O)C(=O)NCCc1ccccc1 (stereo not shown) [Compound 79] | 1 to 100
CCC(C=O)NC(=O)C(CC(C)C)NC(=O)C(NC(=O)C(NC(=O)c1ccc2cnccc2n1)C(C)C)C(C)C (stereo not shown) [Compound 89] (X44-VVL[Abu]-aldehyde; configuration not given here) | 1 to 100
CCC(C=O)NC(=O)C1CC(OC(=O)Nc2ccc(N3CCCCC3)c([N+](=O)[O-])c2)CN1C(=O)C(NC(=O)C(NC(=O)c1cnccn1)C(C)C)C(C)C (stereo not shown) [Compound 34] (Pyrazinecarbonyl-VV[Hyp]([CO-X19])[Abu]-aldehyde; configuration not given here) | 1 to 100
CCC(C=O)NC(=O)C1CC(OCc2noc(-c3c(C)noc3C)n2)CN1C(=O)C(NC(=O)C(NC(=O)c1cnccn1)C(C)C)C(C)C (stereo not shown) [Compound 5] (Pyrazinecarbonyl-VV[Hyp](X35)[Abu]-aldehyde; configuration not given here) | 1 to 100
CCC(C=O)NC(=O)C1CC(OCc2ccccc2)CN1C(=O)C(NC(=O)c1c(O)ccc2ccccc12)C(C)C (stereo not shown) [Compound 168] | 1 to 100
CCC(C=O)NC(=O)C1CC(OCc2ccccc2)CN1C(=O)C(NC(=O)C1CCCC1c1ccccc1)C(C)C (stereo not shown) [Compound 177] | > 100
CCC(C=O)NC(=O)C1CC(OCc2ccccc2)CN1C(=O)C(NC(=O)C(Cc1c[nH]cn1)NC(=O)c1cnccn1)C(C)C (stereo not shown) [Compound 134] (Pyrazinecarbonyl-HV[Hyp](Bn)[Abu]-aldehyde; configuration not given here) | > 100
CCC(C=O)NC(=O)C1CC(OCc2ccccc2)CN1C(=O)C(NC(=O)C(NC(C)=O)C(C)C)C(C)C (stereo not shown) [Compound 81] (Ac-VV[Hyp](Bn)[Abu]-aldehyde; configuration not given here) | 1 to 100
CCC(C=O)NC(=O)C1CC(OCc2ccccc2)CN1C(=O)C(NC(=O)c1ccccc1Br)C(C)C (stereo not shown) [Compound 195] | 1 to 100
CCC(C=O)NC(=O)C1CC(OCc2ccccc2)CN1C(=O)C(NC(=O)CCC(=O)c1ccccc1)C(C)C (stereo not shown) [Compound 170] | > 100
CCC(C=O)NC(=O)C1CC(OCc2ccccc2)CN1C(=O)C(NC(=O)C(NC(=O)CO)C(C)C)C(C)C (stereo not shown) [Compound 82] (Glycolyl-VV[Hyp](Bn)[Abu]-aldehyde; configuration not given here) | 1 to 100
CCC(NC(=O)C(CC(C)C)NC(=O)C(NC(=O)C(NC(=O)c1cnccn1)C(C)C)C(C)C)C(=O)C(=O)NCc1ccccc1 (stereo not shown) [Compound 112] | 1 to 100

SMILES | Ki [µM]
CCCNC(=O)C(=O)C(CC)NC(=O)C(CC(C)C)NC(=O)C(NC(=O)C(NC(=O)C(CC(=O)O)NC(=O)C(CCC(=O)O)NC(C)=O)C(C)C)C(C)C (stereo not shown) [Compound 105] (Ac-EDVVL[ξ(3-Amino-2-oxopentanoyl)]-NHPr; configuration not given here) | < 1
CCC(C=O)NC(=O)C1CC(OC(=O)Nc2cc(Cl)nc(Cl)c2)CN1C(=O)C(NC(=O)C(NC(=O)c1cnccn1)C(C)C)C(C)C (stereo not shown) [Compound 51] (Pyrazinecarbonyl-VV[Hyp]([CO-X43])[Abu]-aldehyde; configuration not given here) | 1 to 100
CCC(C=O)NC(=O)C1CC(OCc2ccccc2)CN1C(=O)C(NC(=O)c1c(-c2c(Cl)cccc2Cl)noc1C)C(C)C (stereo not shown) [Compound 186] | > 100
CCC(C=O)NC(=O)C1CC(NC(=O)C(=O)c2ccccc2)CN1C(=O)C(NC(=O)C(NC(=O)c1cnccn1)C(C)C)C(C)C (stereo not shown) [Compound 64] | 1 to 100
CCC(NC(=O)C(CC(C)C)NC(=O)C(NC(=O)C(NC(=O)C(CC(=O)O)NC(=O)C(CCC(=O)O)NC(C)=O)C(C)C)C(C)C)C(=O)C(=O)NCc1ccccc1 (stereo not shown) [Compound 102] (Ac-EDVVL[ξ(3-Amino-2-oxopentanoyl)]-NHBn; configuration not given here) | < 1
CCC(C=O)NC(=O)C1CC(OCc2ccccc2)CN1C(=O)C(NC(=O)C(Cc1ccc(-c2ccccc2)cc1)NC(=O)c1cnccn1)C(C)C (stereo not shown) [Compound 130] (Pyrazinecarbonyl-[Bip]V[Hyp](Bn)[Abu]-aldehyde; configuration not given here) | > 100
CCC(C=O)NC(=O)[C@@H]1C2CC2CN1C(=O)[C@@H](NC(=O)[C@@H](NC(=O)[C@H](CC(=O)O)NC(=O)[C@H](CCC(=O)O)NC(C)=O)C(C)C)C(C)C (stereo partly shown) [Compound 198] (Ac-EDVV[X45][ξAbu]-aldehyde) | < 1
CCC(C=O)NC(=O)C1CC(NC(=O)N2CCOCC2)CN1C(=O)C(NC(=O)C(NC(=O)c1cnccn1)C(C)C)C(C)C (stereo not shown) [Compound 59] | 1 to 100
CCC(C=O)NC(=O)C1CC(OCc2ccccc2)CN1C(=O)C(NS(=O)(=O)c1ccccc1)C(C)C (stereo not shown) [Compound 144] | > 100
CCC(C=O)NC(=O)C1CC(OC(=O)Nc2cccc([N+](=O)[O-])c2)CN1C(=O)C(NC(=O)C(NC(=O)c1cnccn1)C(C)C)C(C)C (stereo not shown) [Compound 40] (Pyrazinecarbonyl-VV[Hyp]([CO-X30])[Abu]-aldehyde; configuration not given here) | 1 to 100
CCC(C=O)NC(=O)C1CC(OC(=O)Nc2cccc(C#N)c2)CN1C(=O)C(NC(=O)C(NC(=O)c1cnccn1)C(C)C)C(C)C (stereo not shown) [Compound 38] (Pyrazinecarbonyl-VV[Hyp]([CO-X34])[Abu]-aldehyde; configuration not given here) | 1 to 100
CCC(C=O)NC(=O)C1CC(OC(=O)Nc2ccc(C(C)=O)cc2)CN1C(=O)C(NC(=O)C(NC(=O)c1cnccn1)C(C)C)C(C)C (stereo not shown) [Compound 37] (Pyrazinecarbonyl-VV[Hyp]([CO-X39])[Abu]-aldehyde; configuration not given here) | 1 to 100
CCC(C=O)NC(=O)C1CC(OCc2ccccc2)CN1C(=O)C(NC(=O)c1c(C)cc(C)cc1C)C(C)C (stereo not shown) [Compound 191] | > 100
CCOC(=O)C(F)(F)C(=O)C(CC)NC(=O)C1CC(OCc2ccccc2)CN1C(=O)C(NC(=O)C(NC(=O)c1cnccn1)C(C)C)C(C)C (stereo not shown) [Compound 76] | > 100
CCC(NC(=O)C(CC(C)C)NC(=O)C(NC(=O)C(NC(=O)C(CC(=O)O)NC(=O)C(CCC(=O)O)NC(C)=O)C(C)C)C(C)C)C(=O)C(=O)NCC1CCCO1 (stereo not shown) [Compound 108] (Ac-EDVVL[ξ(3-Amino-2-oxopentanoyl)]-X16; configuration not given here) | < 1
CCC(C=O)NC(=O)C1CC(OC(=O)Nc2cc(Cl)c(N)c(Cl)c2)CN1C(=O)C(NC(=O)C(NC(=O)c1cnccn1)C(C)C)C(C)C (stereo not shown) [Compound 33] (Pyrazinecarbonyl-VV[Hyp]([CO-X6])[Abu]-aldehyde; configuration not given here) | > 100
CCC(C=O)NC(=O)C1CC(OCc2cc(F)cc3c2OCOC3)CN1C(=O)C(NC(=O)C(NC(=O)c1cnccn1)C(C)C)C(C)C (stereo not shown) [Compound 8] (Pyrazinecarbonyl-VV[Hyp](X27)[Abu]-aldehyde; configuration not given here) | 1 to 100
